# In PubChem BioAssay AID1259407 (Chemical Carcinogenesis Research Information System (CCRIS), 2018):
# Calls of active or inactive are those of the source. No rule for the calls is given here.
# Tested on: CCRIS mutagenicity, Ames/micronucleus/aberration tests
# Assay: CCRIS mutagenicity studies
# [1] = Test System: AMES SALMONELLA TYPHIMURIUM, Strain/Indicator: TA98, Metabolic Activation: NONE, Method: PREINCUBATION
# [2] = Test System: AMES SALMONELLA TYPHIMURIUM, Strain/Indicator: TA100, Metabolic Activation: NONE, Method: PREINCUBATION
# [3] = Test System: AMES SALMONELLA TYPHIMURIUM, Strain/Indicator: TA1535, Metabolic Activation: NONE, Method: PREINCUBATION
# [4] = Test System: AMES SALMONELLA TYPHIMURIUM, Strain/Indicator: TA1537, Metabolic Activation: NONE, Method: PREINCUBATION
# [5] = Test System: AMES SALMONELLA TYPHIMURIUM, Strain/Indicator: TA100, Metabolic Activation: NONE, Method: STANDARD PLATE
# [6] = Test System: AMES SALMONELLA TYPHIMURIUM, Strain/Indicator: TA98, Metabolic Activation: NONE, Method: STANDARD PLATE
# [7] = Test System: AMES SALMONELLA TYPHIMURIUM, Strain/Indicator: TA98, Metabolic Activation: RAT, LIVER, S-9, AROCLOR 1254, Method: STANDARD PLATE
# [8] = Test System: AMES SALMONELLA TYPHIMURIUM, Strain/Indicator: TA100, Metabolic Activation: RAT, LIVER, S-9, AROCLOR 1254, Method: STANDARD PLATE
# [9] = Test System: AMES SALMONELLA TYPHIMURIUM, Strain/Indicator: TA1538, Metabolic Activation: NONE, Method: STANDARD PLATE
# [10] = Test System: AMES SALMONELLA TYPHIMURIUM, Strain/Indicator: TA1538, Metabolic Activation: RAT, LIVER, S-9, AROCLOR 1254, Method: STANDARD PLATE
compound,measurement,setting,value
Brc1ccc(-c2ccccc2)cc1,mutagenic call,"Test System: AMES SALMONELLA TYPHIMURIUM, Strain/Indicator: TA98, Metabolic Activation: HAMSTER, LIVER, S-9, AROCLOR 1254, Method: PREINCUBATION",inactive; negative
same,mutagenic call,[1],inactive; negative
same,mutagenic call,"Test System: AMES SALMONELLA TYPHIMURIUM, Strain/Indicator: TA98, Metabolic Activation: RAT, LIVER, S-9, AROCLOR 1254, Method: PREINCUBATION",inactive; negative
same,mutagenic call,"Test System: AMES SALMONELLA TYPHIMURIUM, Strain/Indicator: TA100, Metabolic Activation: HAMSTER, LIVER, S-9, AROCLOR 1254, Method: PREINCUBATION",inactive; negative
same,mutagenic call,[2],inactive; negative
same,mutagenic call,"Test System: AMES SALMONELLA TYPHIMURIUM, Strain/Indicator: TA100, Metabolic Activation: RAT, LIVER, S-9, AROCLOR 1254, Method: PREINCUBATION",inactive; negative
same,mutagenic call,"Test System: AMES SALMONELLA TYPHIMURIUM, Strain/Indicator: TA1535, Metabolic Activation: HAMSTER, LIVER, S-9, AROCLOR 1254, Method: PREINCUBATION",inactive; negative
same,mutagenic call,[3],inactive; negative
same,mutagenic call,"Test System: AMES SALMONELLA TYPHIMURIUM, Strain/Indicator: TA1535, Metabolic Activation: RAT, LIVER, S-9, AROCLOR 1254, Method: PREINCUBATION",inactive; negative
same,mutagenic call,"Test System: AMES SALMONELLA TYPHIMURIUM, Strain/Indicator: TA1537, Metabolic Activation: HAMSTER, LIVER, S-9, AROCLOR 1254, Method: PREINCUBATION",inactive; negative
same,mutagenic call,[4],inactive; negative
same,mutagenic call,"Test System: AMES SALMONELLA TYPHIMURIUM, Strain/Indicator: TA1537, Metabolic Activation: RAT, LIVER, S-9, AROCLOR 1254, Method: PREINCUBATION",inactive; negative
Cc1ccccc1OP(=O)(Oc1ccccc1C)Oc1ccccc1C,mutagenic call,[5],inactive; negative
same,mutagenic call,"Test System: AMES SALMONELLA TYPHIMURIUM, Strain/Indicator: TA100, Metabolic Activation: RAT, LIVER, MICROSOMES, Method: STANDARD PLATE",active; positive
Nc1nccc2[nH]c3ccccc3c12,mutagenic call,[4],active; positive
c1ccc2[nH]ccc2c1,mutagenic call,"Test System: AMES SALMONELLA TYPHIMURIUM, Strain/Indicator: TA97, Metabolic Activation: NONE, Method: PREINCUBATION",inactive; negative
same,mutagenic call,"Test System: AMES SALMONELLA TYPHIMURIUM, Strain/Indicator: TA97, Metabolic Activation: RAT, LIVER, S-9, AROCLOR 1254, Method: PREINCUBATION",inactive; negative
same,mutagenic call,[2],inactive; negative
same,mutagenic call,"Test System: AMES SALMONELLA TYPHIMURIUM, Strain/Indicator: TA102, Metabolic Activation: NONE, Method: PREINCUBATION",inactive; negative
same,mutagenic call,"Test System: AMES SALMONELLA TYPHIMURIUM, Strain/Indicator: TA102, Metabolic Activation: RAT, LIVER, S-9, AROCLOR 1254, Method: PREINCUBATION",inactive; negative
NCCCN,mutagenic call,"Test System: AMES SALMONELLA TYPHIMURIUM, Strain/Indicator: TA98, Metabolic Activation: HAMSTER, LIVER, S-9, AROCLOR 1254 (10%), Method: PREINCUBATION",inactive; negative
same,mutagenic call,[1],inactive; negative
same,mutagenic call,"Test System: AMES SALMONELLA TYPHIMURIUM, Strain/Indicator: TA98, Metabolic Activation: RAT, LIVER, S-9, AROCLOR 1254 (10%), Method: PREINCUBATION",inactive; negative
same,mutagenic call,"Test System: AMES SALMONELLA TYPHIMURIUM, Strain/Indicator: TA100, Metabolic Activation: HAMSTER, LIVER, S-9, AROCLOR 1254 (10%), Method: PREINCUBATION",inactive; negative
same,mutagenic call,[2],inactive; negative
same,mutagenic call,"Test System: AMES SALMONELLA TYPHIMURIUM, Strain/Indicator: TA100, Metabolic Activation: RAT, LIVER, S-9, AROCLOR 1254 (10%), Method: PREINCUBATION",inactive; negative
same,mutagenic call,"Test System: AMES SALMONELLA TYPHIMURIUM, Strain/Indicator: TA1535, Metabolic Activation: HAMSTER, LIVER, S-9, AROCLOR 1254 (10%), Method: PREINCUBATION",inactive; negative
same,mutagenic call,[3],inactive; negative
same,mutagenic call,"Test System: AMES SALMONELLA TYPHIMURIUM, Strain/Indicator: TA1535, Metabolic Activation: RAT, LIVER, S-9, AROCLOR 1254 (10%), Method: PREINCUBATION",inactive; negative
same,mutagenic call,"Test System: AMES SALMONELLA TYPHIMURIUM, Strain/Indicator: TA1537, Metabolic Activation: HAMSTER, LIVER, S-9, AROCLOR 1254 (10%), Method: PREINCUBATION",inactive; negative
same,mutagenic call,[4],inactive; negative
same,mutagenic call,"Test System: AMES SALMONELLA TYPHIMURIUM, Strain/Indicator: TA1537, Metabolic Activation: RAT, LIVER, S-9, AROCLOR 1254 (10%), Method: PREINCUBATION",inactive; negative
Nc1cccc([N+](=O)[O-])c1O,mutagenic call,[6],inactive; negative
same,mutagenic call,[7],inactive; negative
same,mutagenic call,[5],inactive; negative
same,mutagenic call,[8],inactive; negative
same,mutagenic call,"Test System: AMES SALMONELLA TYPHIMURIUM, Strain/Indicator: TA1535, Metabolic Activation: NONE, Method: STANDARD PLATE",inactive; negative
same,mutagenic call,"Test System: AMES SALMONELLA TYPHIMURIUM, Strain/Indicator: TA1535, Metabolic Activation: RAT, LIVER, S-9, AROCLOR 1254, Method: STANDARD PLATE",inactive; negative
same,mutagenic call,"Test System: AMES SALMONELLA TYPHIMURIUM, Strain/Indicator: TA1537, Metabolic Activation: NONE, Method: STANDARD PLATE",inactive; negative
same,mutagenic call,"Test System: AMES SALMONELLA TYPHIMURIUM, Strain/Indicator: TA1537, Metabolic Activation: RAT, LIVER, S-9, AROCLOR 1254, Method: STANDARD PLATE",inactive; negative
same,mutagenic call,[9],inactive; negative
same,mutagenic call,[10],inactive; negative
CC(=O)c1cccn1[N+](=O)[O-],mutagenic call,[6],active; positive
same,mutagenic call,[7],active; positive
same,mutagenic call,[5],active; positive
same,mutagenic call,[8],active; positive
NC(=O)OC[C@@H]1[C@H](NC(=O)/C(=N\OCC(=O)O)c2csc(N)n2)C(=O)N1S(=O)(=O)O,mutagenic call,"Test System: AMES SALMONELLA TYPHIMURIUM, Strain/Indicator: TA98, Metabolic Activation: NONE",inactive; negative
same,mutagenic call,"Test System: AMES SALMONELLA TYPHIMURIUM, Strain/Indicator: TA98, Metabolic Activation: S-9",inactive; negative
same,mutagenic call,"Test System: AMES SALMONELLA TYPHIMURIUM, Strain/Indicator: TA100, Metabolic Activation: NONE",inactive; negative
same,mutagenic call,"Test System: AMES SALMONELLA TYPHIMURIUM, Strain/Indicator: TA100, Metabolic Activation: S-9",inactive; negative
same,mutagenic call,"Test System: AMES SALMONELLA TYPHIMURIUM, Strain/Indicator: TA1537, Metabolic Activation: NONE",inactive; negative
same,mutagenic call,"Test System: AMES SALMONELLA TYPHIMURIUM, Strain/Indicator: TA1537, Metabolic Activation: S-9",inactive; negative
same,mutagenic call,"Test System: E. COLI, Strain/Indicator: WP2 (HCR), Metabolic Activation: NONE",inactive; negative
same,mutagenic call,"Test System: E. COLI, Strain/Indicator: WP2 (HCR), Metabolic Activation: S-9",inactive; negative
Nc1ccc(Cl)cc1[N+](=O)[O-],mutagenic call,"End Point: IN VITRO CHROMOSOMAL ABERRATIONS, Test System: CHINESE HAMSTER OVARY CELLS, Metabolic Activation: NONE",inactive; negative; precipitation occurred at 252 ug/ml
same,mutagenic call,"End Point: IN VITRO CHROMOSOMAL ABERRATIONS, Test System: CHINESE HAMSTER OVARY CELLS, Metabolic Activation: RAT, LIVER, S-9, AROCLOR 1254",active; positive; precipitation occurred at all doses
same,mutagenic call,"Test System: AMES SALMONELLA TYPHIMURIUM, Strain/Indicator: TA98(NR), Metabolic Activation: NONE, Method: STANDARD PLATE",inactive; negative
same,mutagenic call,[1],inactive; negative
same,mutagenic call,"Test System: AMES SALMONELLA TYPHIMURIUM, Strain/Indicator: TA98, Metabolic Activation: RAT, LIVER, S-9, KANECHLOR 500, Method: PREINCUBATION",active; positive
same,mutagenic call,[2],inactive; negative
same,mutagenic call,[9],active; positive
same,mutagenic call,[10],active; positive
same,mutagenic call,"Test System: AMES SALMONELLA TYPHIMURIUM, Strain/Indicator: YG1020, Metabolic Activation: NONE, Method: STANDARD PLATE",active; positive
same,mutagenic call,"Test System: AMES SALMONELLA TYPHIMURIUM, Strain/Indicator: YG1021, Metabolic Activation: NONE, Method: STANDARD PLATE",active; positive
same,mutagenic call,"Test System: AMES SALMONELLA TYPHIMURIUM, Strain/Indicator: YG1024, Metabolic Activation: NONE, Method: STANDARD PLATE",active; positive
